Consider four compounds from ChEMBL document CHEMBL1134330, “Synthesis, in vitro pharmacology, and molecular modeling of syn-huprines as acetylcholinesterase inhibitors” (J Med Chem, 2001).

For experiment [1], the target named is Acetylcholinesterase (Homo sapiens, UniProt P22303). Nature of the experiment: In vitro inhibitory concentration against acetylcholinesterase of human erythrocytes.
The target of experiment [2] is Cholinesterase (Homo sapiens, UniProt P06276).
Description: In vitro inhibitory concentration against BChE of human serum
Experiment [3] has as its target T1, Acetylcholinesterase (Bos taurus, UniProt P23795).
T1 sequence (P23795 whole entry): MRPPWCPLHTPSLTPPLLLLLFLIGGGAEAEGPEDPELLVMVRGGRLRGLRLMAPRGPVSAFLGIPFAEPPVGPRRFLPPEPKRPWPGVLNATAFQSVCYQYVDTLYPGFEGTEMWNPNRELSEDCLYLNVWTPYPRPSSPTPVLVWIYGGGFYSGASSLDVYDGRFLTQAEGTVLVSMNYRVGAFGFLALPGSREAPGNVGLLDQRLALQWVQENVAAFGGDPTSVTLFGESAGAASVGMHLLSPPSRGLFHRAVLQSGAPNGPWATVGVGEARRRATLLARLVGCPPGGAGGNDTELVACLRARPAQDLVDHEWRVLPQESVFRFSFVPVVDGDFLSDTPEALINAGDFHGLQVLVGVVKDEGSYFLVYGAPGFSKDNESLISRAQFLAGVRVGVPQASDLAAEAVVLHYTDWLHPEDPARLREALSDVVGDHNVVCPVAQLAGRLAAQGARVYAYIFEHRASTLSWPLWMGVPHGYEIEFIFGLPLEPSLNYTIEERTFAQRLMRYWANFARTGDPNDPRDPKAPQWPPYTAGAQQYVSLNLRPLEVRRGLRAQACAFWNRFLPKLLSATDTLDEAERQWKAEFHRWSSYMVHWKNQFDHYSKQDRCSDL
Description: In vitro inhibitory concentration against bovine acetylcholinesterase enzyme

Chain of Acetylcholinesterase (Homo sapiens, UniProt P22303) (P22303 whole entry): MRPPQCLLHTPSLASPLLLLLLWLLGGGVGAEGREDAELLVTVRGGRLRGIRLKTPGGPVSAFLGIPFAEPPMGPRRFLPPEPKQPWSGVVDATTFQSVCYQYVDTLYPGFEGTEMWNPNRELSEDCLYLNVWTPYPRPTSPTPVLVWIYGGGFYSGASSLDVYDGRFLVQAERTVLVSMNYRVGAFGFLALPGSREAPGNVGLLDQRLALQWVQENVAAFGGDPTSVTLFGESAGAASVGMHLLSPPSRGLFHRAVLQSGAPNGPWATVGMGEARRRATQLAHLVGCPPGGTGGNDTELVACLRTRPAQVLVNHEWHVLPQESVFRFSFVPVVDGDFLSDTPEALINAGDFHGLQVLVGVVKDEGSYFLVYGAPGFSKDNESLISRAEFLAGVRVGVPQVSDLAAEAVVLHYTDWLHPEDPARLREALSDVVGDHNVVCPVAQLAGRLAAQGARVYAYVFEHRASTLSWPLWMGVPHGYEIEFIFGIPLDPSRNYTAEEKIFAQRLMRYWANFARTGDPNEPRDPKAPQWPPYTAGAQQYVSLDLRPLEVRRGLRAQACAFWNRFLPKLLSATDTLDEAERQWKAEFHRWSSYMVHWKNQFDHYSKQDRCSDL
Chain of Cholinesterase (P06276 whole entry): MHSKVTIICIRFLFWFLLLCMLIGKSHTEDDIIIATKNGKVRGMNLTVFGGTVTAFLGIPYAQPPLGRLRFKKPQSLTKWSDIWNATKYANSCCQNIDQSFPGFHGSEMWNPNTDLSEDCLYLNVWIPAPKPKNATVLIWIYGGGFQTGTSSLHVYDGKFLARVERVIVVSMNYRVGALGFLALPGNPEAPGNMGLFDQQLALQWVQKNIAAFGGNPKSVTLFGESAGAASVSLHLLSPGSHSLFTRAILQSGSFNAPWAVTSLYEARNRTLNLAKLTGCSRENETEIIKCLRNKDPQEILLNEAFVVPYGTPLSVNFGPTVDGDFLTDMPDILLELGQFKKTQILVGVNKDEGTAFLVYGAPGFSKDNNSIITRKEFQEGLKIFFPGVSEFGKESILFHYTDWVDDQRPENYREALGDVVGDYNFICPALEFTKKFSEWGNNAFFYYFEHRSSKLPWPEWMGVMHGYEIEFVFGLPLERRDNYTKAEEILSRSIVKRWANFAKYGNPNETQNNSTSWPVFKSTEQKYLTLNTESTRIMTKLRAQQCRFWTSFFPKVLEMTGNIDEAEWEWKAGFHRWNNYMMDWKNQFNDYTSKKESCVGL

In turn, `CC1=CC2Cc3nc4ccccc4c(N)c3C(C1)C2` (racemic) came in with an IC50 in experiment [1] of 51.6 nM.

`CCC1=CC2Cc3nc4ccccc4c(N)c3C(C1)C2` (racemic) yielded an IC50 in experiment [1] of 37.8 nM.

On to `CCC1=CC2CC(C1)Cc1nc3ccccc3c(N)c12` (racemic), for which the IC50 in experiment [2] came to 63 nM; in experiment [1] it was 76.9 nM; in experiment [3], 165 nM.

As to `CC1=CC2CC(C1)Cc1nc3ccccc3c(N)c12` (racemic), the values for the IC50 in experiment [2] and in experiment [1] were 148 nM and 436 nM, respectively.
